Our source for the Ki values is patent US20030027819A1, “Beta-sheet mimetics and methods relating to the use thereof” (Molecumetics Ltd., priority 1996, published 2003).

This experiment concerns the target thrombin (Bos taurus, UniProt P00735). Put plainly: Thrombin inhibition by solid phase compounds of Tables 11-15. The conditions noted are these: mixtures of diastereomers; read-out: Ki as thrombin inhibitors (mark at Cpd. No.). The arrangement: 100 μl of 10 μM thrombin solution. Type of experiment: biochemical. The method, then:
Following extensive washing with DMF, the resin was treated with the acid fluoride of N-Fmoc-4-aminomethylbenzoic acid, or (81), or (86) and Hunigs' base in DMF until the Kaiser test was negative. Alternatively, the Fmoc-protected thiazole-(75) or imidazole-based (77) linkers were coupled to the resin using BOP, HOBt and DIEA. In some instances Fmoc-Leu or another amino acid was attached to the resin prior to the thiazole-(75) or imidazole-based (77) linkers via the same methodology. […] Following washing with DMF a dienoic acid was coupled to the resin-bound linkers using PyBOP, HOBt and Hunigs' base in DMF until the result of a Kaiser test was negative. The cycloaddition was performed by pretreatment of a solution of a pyrazolidinedione (not shown) or urazole in DMF with a solution of [bis(trifluoroacetoxy)iodo]benzene in DMF. […] The resin was then washed with DMF and CH2Cl2. Oxidation to the ketoamide was effected by treatment of the resin with a solution of Dess-Martin periodinane in DMSO for 60 min. […] The supernatant was collected and the resin was washed with additional TFA. The combined filtrates were concentrated in vacuo. The residue was precipitated with diethyl ether and the ether was decanted. The resulting solid was reconstituted in 1:1 CH3CN:H2O and lyophilized. […] The compounds were assayed for inhibition of coagulation enzymes as mixtures of diastereomers.

`NCCCCC(NC(=O)C1C=C2CCCCC2n2c(=O)n(Cc3cc(F)ccc3F)c(=O)n21)C(=O)C(=O)NCCCc1ccc(C(N)=O)cc1` (centres unmarked) [Structure 226]: the Ki – broadly, the dissociation constant of the complex between target and ligand, obtained from inhibition or displacement – was below 10 nM.

On to `NCCCCC(NC(=O)C1C=C2CCCCC2n2c(=O)n(CCc3cccs3)c(=O)n21)C(=O)C(=O)NCCc1ccc(C(N)=O)cc1` (centres unmarked) [Structure 119], for which the Ki was below 10 nM. For the molecule `CC(CC1C=CC(C(=O)NC(CCCCN)C(=O)C(=O)NCCc2ccc(C(N)=O)cc2)n2c(=O)n(Cc3ccc(C(F)(F)F)c(F)c3)c(=O)n21)CC(C)(C)C` (centres unmarked) [Structure 134], the Ki was below 10 nM. The result for `CC(C)CC1C=CC(C(=O)NC(CCCCN)C(=O)C(=O)NCc2ccc(C(N)=O)cc2)n2c(=O)n(C(c3ccccc3)c3ccccc3)c(=O)n21` (centres unmarked) [Structure 108] reads below 10 nM; that for `CCC=CCCC1C=CC(C(=O)NC(CCCCN)C(=O)C(=O)NCCc2ccc(C(N)=O)cc2)n2c(=O)n(Cc3cc(F)ccc3F)c(=O)n21` (mixture of isomers) [Structure 103], below 10 nM. `CC1=CC(C(=O)NCC2CCC(N)CC2)n2c(=O)n(CCS(=O)(=O)c3ccccc3)c(=O)n2C1` (centres unmarked) [Structure 221-5]: the Ki is below 10 nM.

`CC1=CC(C(=O)NC(CCCCN)C(=O)C(=O)NCCc2ccc(C(N)=O)cc2)n2c(=O)n(C(Cc3ccccc3)c3ccccc3)c(=O)n2C1` (centres unmarked) [Structure 136]: the Ki was below 10 nM. Next, `CC1=CC(C(=O)NC(CCCCN)C(=O)C(=O)NCCc2ccc(C(N)=O)cc2)n2c(=O)n(CC(F)(F)F)c(=O)n2C1` (centres unmarked) [Structure 145]: below 10 nM; `CC(CC1C=CC(C(=O)NC(CCCCN)C(=O)C(=O)NCCc2ccc(C(N)=O)cc2)n2c(=O)n(-c3ccc(C(C)(C)C)cc3)c(=O)n21)CC(C)(C)C` (centres unmarked) [Structure 128]: below 10 nM; `CCC=CCCC1C=CC(C(=O)NC(CCCCN)C(=O)C(=O)NCCc2ccc(C(N)=O)cc2)n2c(=O)n(Cc3ccc(C(F)(F)F)c(F)c3)c(=O)n21` (mixture of isomers) [Structure 104]: below 10 nM. The result for `CC1=CC(C(=O)NC(CCCCN)C(=O)C(=O)NCc2ccc(C(=O)NCCc3ccccc3)cc2)n2c(=O)n(Cc3cc(F)ccc3F)c(=O)n2C1` (centres unmarked) [Structure 102] reads below 10 nM; that for `CC1=CC(C(=O)NC(CCCCN)C(=O)C(=O)NCCc2ccc(C(N)=O)cc2)n2c(=O)n(Cc3cc(F)ccc3F)c(=O)n2C1` (centres unmarked) [Structure 100], below 10 nM. On to `CC(C)(C)CC1C=CC(C(=O)NC(CCCCN)C(=O)C(=O)NCCc2ccc(C(N)=O)cc2)n2c(=O)n(Cc3ccccc3)c(=O)n21` (centres unmarked) [Structure 140], for which the Ki was below 10 nM. On to `CC(C)CC1C=CC(C(=O)NC(CCCCN)C(=O)C(=O)NCCc2ccc(C(N)=O)cc2)n2c(=O)n(CCc3cccs3)c(=O)n21` (centres unmarked) [Structure 115], for which the Ki is below 10 nM. Next, `CC(C)CC1C=CC(C(=O)NC(CCCCN)C(=O)C(=O)NCCc2ccc(C(N)=O)cc2)n2c(=O)n(Cc3cc(F)ccc3F)c(=O)n21` (centres unmarked) [Structure 113]: below 10 nM. Next, `CC1=CC(C(=O)NC(CCCCN)C(=O)C(=O)NCc2ccc(C(=O)NCCc3ccccc3)cc2)n2c(=O)n(Cc3cc(F)ccc3F)c(=O)n2C1` (centres unmarked) [Structure 223]: below 10 nM; `CC(C)CC1C=CC(C(=O)NC(CCCCN)C(=O)C(=O)NCc2ccc(C(N)=O)cc2)n2c(=O)n(Cc3cccc4ccccc34)c(=O)n21` (centres unmarked) [Structure 109]: below 10 nM; `CC1=CC(C(=O)NC(CCCCN)C(=O)C(=O)NCc2ccc(C(N)=O)cc2)N2C(=O)C(N)(Cc3ccccc3)C(=O)N2C1` (centres unmarked) [Structure 189]: below 10 nM. In the case of `CC(C)CCn1c(=O)n2n(c1=O)C(C(=O)NC(CCCCN)C(=O)C(=O)NCCc1ccc(C(N)=O)cc1)C=CC2CC(C)CC(C)(C)C` (centres unmarked) [Structure 126], the Ki was below 10 nM. Next, `CC1=CC(C(=O)NC(CCCCN)C(=O)C(=O)NCCc2ccc(C(N)=O)cc2)n2c(=O)n(Cc3ccc(C(F)(F)F)c(F)c3)c(=O)n2C1` (centres unmarked) [Structure 137]: below 10 nM; `CC(C)(C)CC1C=CC(C(=O)NC(CCCCN)C(=O)C(=O)NCCc2ccc(C(N)=O)cc2)n2c(=O)n(CCc3ccccc3)c(=O)n21` (centres unmarked) [Structure 142]: below 10 nM; `CC(C)CC1C=CC(C(=O)NC(CCCCN)C(=O)C(=O)NCc2ccc(C(N)=O)cc2)n2c(=O)n(Cc3cccs3)c(=O)n21` (centres unmarked) [Structure 110]: below 10 nM. With `CC(Cn1c(=O)n2n(c1=O)C1CCCCC1=CC2C(=O)NC(CCCCN)C(=O)C(=O)NCCc1ccc(C(N)=O)cc1)c1ccccc1` (centres unmarked) [Structure 121], the Ki is below 10 nM. On to `CC1=CC(C(=O)NC(CCCNC(=N)N)C(=O)c2nc(C(N)=O)c[nH]2)n2c(=O)n(CC(c3ccccc3)c3ccccc3)c(=O)n2C1` (centres unmarked) [Structure 201], for which the inhibitory constant (Ki) is below 10 nM. On to `CC(C)CC1C=CC(C(=O)NC(CCCCN)C(=O)C(=O)NCCc2ccc(C(N)=O)cc2)n2c(=O)n(C(c3ccccc3)c3ccccc3)c(=O)n21` (centres unmarked) [Structure 118], for which the Ki was below 10 nM. Next, `CC1C=CC(C(=O)NC(CCCCN)C(=O)C(=O)NCc2ccc(C(N)=O)cc2)n2c(=O)n(CCc3cccs3)c(=O)n21` (centres unmarked) [Structure 146]: below 10 nM. Next, `CC1=CC(C(=O)NC(CCCNC(=N)N)C(=O)c2nc3ccccc3s2)n2c(=O)n(CC(c3ccccc3)c3ccccc3)c(=O)n2C1` (centres unmarked) [Structure 215]: below 10 nM; `CC1=CC(C(=O)NC(CCCCN)C(=O)C(=O)NCCc2ccc(C(N)=O)cc2)n2c(=O)n(Cc3cccs3)c(=O)n2C1c1ccccc1` (centres unmarked) [Structure 124]: below 10 nM; `CC(C)CC1C=CC(C(=O)NC(CCCCN)C(=O)C(=O)NCCc2ccc(C(N)=O)cc2)n2c(=O)n(Cc3cccc4ccccc34)c(=O)n21` (centres unmarked) [Structure 117]: below 10 nM.

On to `CC(C)(C)CC1C=CC(C(=O)NC(CCCCN)C(=O)C(=O)NCCc2ccc(C(N)=O)cc2)n2c(=O)n(CC(c3ccccc3)c3ccccc3)c(=O)n21` (centres unmarked) [Structure 143], for which the Ki was below 10 nM.

On to `CCC=CCCC1C=CC(C(=O)NC(CCCCN)C(=O)C(=O)NCCc2ccc(C(N)=O)cc2)n2c(=O)n(C(Cc3ccccc3)c3ccccc3)c(=O)n21` (mixture of isomers) [Structure 105], for which the Ki was below 10 nM.

On to `CCC=CCCC1C=CC(C(=O)NC(CCCCN)C(=O)C(=O)NCCc2ccc(C(N)=O)cc2)n2c(=O)n(Cc3ccccc3)c(=O)n21` (mixture of isomers) [Structure 107], for which the inhibitory constant (Ki) is below 10 nM. Turning to `CC(C)CC1C=CC(C(=O)NC(CCCCN)C(=O)C(=O)NCCc2ccc(C(N)=O)cc2)n2c(=O)n(CC(C)c3ccccc3)c(=O)n21` (centres unmarked) [Structure 111], the Ki was below 10 nM. Next, `CC1=CC(C(=O)NC(CCCNC(=N)N)C(=O)c2nc(C(N)=O)cs2)n2c(=O)n(CC(c3ccccc3)c3ccccc3)c(=O)n2C1` (centres unmarked) [Structure 198]: below 10 nM. For `CC(C)(C)CC1C=CC(C(=O)NC(CCCCN)C(=O)C(=O)NCCc2ccc(C(N)=O)cc2)n2c(=O)n(C(c3ccccc3)c3ccccc3)c(=O)n21` (centres unmarked) [Structure 141], the Ki was below 10 nM. The result for `COc1ccccc1-n1c(=O)n2n(c1=O)C(C(=O)NC(CCCCN)C(=O)C(=O)NCCc1ccc(C(N)=O)cc1)C=CC2CC(C)C` (centres unmarked) [Structure 114] reads below 10 nM. Next, `CC(CC1C=CC(C(=O)NC(CCCCN)C(=O)C(=O)NCCc2ccc(C(N)=O)cc2)n2c(=O)n(Cc3ccccc3)c(=O)n21)CC(C)(C)C` (centres unmarked) [Structure 132]: below 10 nM; `CC1=CC(C(=O)NC(CCCCN)C(=O)C(=O)NCCc2ccc(C(N)=O)cc2)n2c(=O)n(Cc3cc(F)ccc3F)c(=O)n2C1` (centres unmarked) [Structure 222]: below 10 nM. As to `CC1=CC(C(=O)NC(CCCNC(=N)N)C(=O)c2nc3ccccc3s2)n2c(=O)n(Cc3ccccc3)c(=O)n2C1` (centres unmarked) [Structure 224], the Ki was below 10 nM. For `CC1=CC(C(=O)NC(CCCCN)C(=O)C(=O)NCCc2ccc(C(N)=O)cc2)n2c(=O)n(Cc3cc(F)ccc3F)c(=O)n2C1c1ccccc1` (centres unmarked) [Structure 122], the Ki is below 10 nM.

Regarding `CC(C)(C)CC1C=CC(C(=O)NC(CCCCN)C(=O)C(=O)NCCc2ccc(C(N)=O)cc2)n2c(=O)n(Cc3cc(F)ccc3F)c(=O)n21` (centres unmarked) [Structure 225], the Ki was below 10 nM.

In the case of `CC(CC1C=CC(C(=O)NC(CCCCN)C(=O)C(=O)NCCc2ccc(C(N)=O)cc2)n2c(=O)n(C(c3ccccc3)c3ccccc3)c(=O)n21)CC(C)(C)C` (centres unmarked) [Structure 131], the Ki was below 10 nM.

As for `CC(C)CC1C=CC(C(=O)NC(CCCCN)C(=O)C(=O)NCCc2ccc(C(N)=O)cc2)n2c(=O)n(Cc3ccccc3)c(=O)n21` (centres unmarked) [Structure 112], the Ki is below 10 nM. Consider `CC(CC1C=CC(C(=O)NC(CCCCN)C(=O)C(=O)NCCc2ccc(C(N)=O)cc2)n2c(=O)n(Cc3cc(F)ccc3F)c(=O)n21)CC(C)(C)C` (centres unmarked) [Structure 135], for which the Ki is below 10 nM.

With `CC(C)(C)CC1C=CC(C(=O)NC(CCCCN)C(=O)C(=O)NCCc2ccc(C(N)=O)cc2)n2c(=O)n(C(Cc3ccccc3)c3ccccc3)c(=O)n21` (centres unmarked) [Structure 144], the Ki is below 10 nM. Next, `CC1=CC(C(=O)NC(CCCNC(=N)N)C(=O)c2nc3ccccc3s2)n2c(=O)n(Cc3ccccc3)c(=O)n2C1` (centres unmarked) [Structure 211]: below 10 nM; `COc1ccccc1-n1c(=O)n2n(c1=O)C(C(=O)NC(CCCCN)C(=O)C(=O)NCCc1ccc(C(N)=O)cc1)C=CC2CC(C)CC(C)(C)C` (centres unmarked) [Structure 127]: below 10 nM.
